Patent US4097496A, “Novel cyclopentane derivatives” (Hoechst Aktiengesellschaft, priority 1973, dated 1978)
In brackets after ≈: the same amount, converted by molar mass.

How the values were obtained:
[1] = system: PGF2α-contraction in the isolated guinea pig uterus; experiment: Inhibition of the PGF2α-contraction in the isolated guinea pig uterus; settings: Cavia porcellus, agonist PGF2α 40 ng/ml, deJalon solution, probit analysis
Method: (§1) It is surprising that the compounds of the formula I which are closely related to the natural prostaglandins with regard to their structure, as it has been mentioned above, have a strong anti-prostaglandin effect. If, for example, a solution of the compounds of the invention in water is added to the isolated guinea pig ileum or uterus and if for example prostaglandin E2 or F2 α is added to this solution, in concentrations which normally stimulate the isolated ileum or the isolated uterus to strong contractions, only a weaker or no spasmogenic effect of the prostaglandins E2 and F2 α can be detected - depending on the concentrations used.
As test animals were used brown guinea pigs, males and females having a weight of from about 300 to 400 g. The animals were killed by a blow into the neck, the terminal ileum was rapidly taken off and put into a Petri dish containing a pre-heated Tyrode's solution. The intestine was decomposed into four equal sections (2 to 3 cm). […] This latter contraction was considered as being 100%, and the contraction determined by the compound of the invention acting as antagonist was expressed in percent with regard to this basic contraction. […]
The average concentration was determined by means of the probit analysis. The straight line resulting from this method allowed to read the average inhibiting concentration (Table I). […]

[2] = system: PGE2-contraction in the isolated guinea pig ileum; experiment: Inhibition of the PGE2-contraction in the isolated guinea pig ileum; settings: Cavia porcellus, agonist PGE2 200 ng/ml; for IC50: 3 min pre-treatment, probit analysis, 37° C; for inhibition at 10 µg/mL: at 10 μg/ml
Method: as §1
As test animals were used brown guinea pigs, males and females having a weight of from about 300 to 400 g. The animals were killed by a blow into the neck, the terminal ileum was rapidly taken off and put into a Petri dish containing a pre-heated Tyrode's solution. The intestine was decomposed into four equal sections (2 to 3 cm). Then the individual sections were put into an organ liquor filled with a Tyrode's solution and bubbled through by oxygen and they were fixed. The bath temperature was 37° C. Composition of the Tyrode's solution: […], 0.2 g of KCl, 0.55 g of CaCl2, 0.2 g of Mg Cl2, 1.0 g of glucose, 1.0 g of NaHCO3 in 1000 ml of distilled water. The free end was connected with the writing lever by a thread. The charge of the thread was 1 g. After a 30 minutes' recovery time the test itself was initiated. The test consisted in a pre-treatment with the antagonist to be tested and in the administration of the agonist three minutes later. The resulting contraction was compared with the initial contraction achieved by the administration of the agonist only. This latter contraction was considered as being 100%, and the contraction determined by the compound of the invention acting as antagonist was expressed in percent with regard to this basic contraction. All substances were dissolved in absolute alcohol and further diluted to their final concentrations with phosphate buffer (pH 7.4). As agonists were used prostaglandin E2 (UPJOHN) in the isolated ileum, and PGF2 in the isolated uterus.
The average concentration was determined by means of the probit analysis. The straight line resulting from this method allowed to read the average inhibiting concentration (Table I).
Inhibition of the PGE2 - and PGF2α -contraction in the isolated guinea pig ileum or uterus

[3] = read-out: inhibition in percent for the corresponding dosis

Row | SMILES | IC50 [1] [mg/L] | IC50 [2] [mg/L] | inhibition at 10 µg/mL [2, 3] [%] | inhibition at 5 µg/mL ([2]; at 5 μg/ml, read-out: inhibition in percent for the corresponding dosis) [%]
1 | CCCCCC(O)/C=C/C1CCC(O)C1(CCCCCCC(=O)O)C(=O)OCC (stereo not drawn) [Example 3, (5 RS, 3" SR)-1-(6'-carboxyhexyl)-2-hydroxy-5-(3"-hydroxy-trans-1"-octenyl)-cyclopentane-carboxylic acid ethyl ester] | 2 (≈ 4.85 µM) |  |  | 
2 | CCCCCC(/C=C/C1CCC(=O)C1(Cc1ccccc1CCCC(=O)OCC)C(=O)OCC)OC1CCCCO1 (stereo not drawn) [Example 44, (5RS,3'"SR)-1-[2'-(3"-Ethoxycarbonylpropyl)-benzyl]-2-oxo-5-[3'"-(2""-tetrahydropyranyloxy)-trans-1'"-octenyl]-cyclopentane-carboxylic acid ethyl ester] |  | < 10 | 40 | 
3 | CCCCCC(/C=C/C1CCC(=O)C1(CCC(C)CCCC(=O)OCC)C(=O)OCC)OC1CCCCO1 (stereo not drawn) [Example 4, (5 RS, 3" SR)-1-(6'-Ethoxycarbonyl-3'-methylhexyl)-2-oxo-5-[3"-(2"'-tetrahydropyranyloxy)-trans-1"-octenyl]-cyclopentane-carboxylic acid ethyl ester] |  | 1.2 (≈ 2.24 µM) |  | 
4 | CCCCCC(O)/C=C/C1CCC(O)C1(C/C=C/COCC(=O)OCC)C(=O)OCC (stereo not shown) [Example 36] |  | 4.6 (≈ 10.4 µM) |  | 
5 | CCCCCC(O)/C=C/C1CCC(O)C1(C/C=C\COCC(=O)O)C(=O)OCC (stereo not drawn) [Example 32, (5RS,3"SR)-1-(6'-Carboxy-5'-oxa-cis-2'-hexenyl)-2-hydroxy5-[3"-hydroxy-trans-1"-octenyl]-cyclopentane-carboxylic acid ethyl ester] |  | ~5 (≈ 12.1 µM) |  | 
6 | CCCCCC(/C=C/C1CCC(=O)C1(CCCCCC(C)C(=O)OCC)C(=O)OCC)OC1CCCCO1 (stereo not drawn) [Example 13, (5RS,3"SR)-1-(6'-Ethoxycarbonylheptyl)-2-oxo-5-[3"-(2'"-tetrahydropyranyloxy)-trans-1"-octenyl]-cyclopentane-carboxylic acid ethyl ester] |  | ~5 (≈ 9.32 µM) |  | 
7 | CCCCCC(O)/C=C/C1CCC(O)C1(CCCCOCC(=O)O)C(=O)OCC (stereo not drawn) [Example 30, (5RS,3"SR)-1-(6'-Carboxy-5'-oxahexyl)-2-hydroxy-5-[3"-hydroxy-trans-1"-octentyl]-cyclopentane-carboxylic acid ethyl ester] |  | < 5 |  | 80
8 | CCCCCC(/C=C/C1CCC(O)C1(Cc1ccccc1CCCC(=O)O)C(=O)OCC)OC1CCCCO1 (stereo not drawn) [Example 45, (5RS,3'"SR)-1-[2'-(3"-Carboxypropyl)-benzyl]-2-hydroxy-5-[3'"-(2""-tetrahydropyranyloxy)-trans-1'"-octenyl]-cyclopentane-carboxylic acid ethyl ester] |  | ~10 (≈ 18.4 µM) |  | 
9 | CCCCCC(/C=C/C1CCC(O)C1(CCCC(C)CCC(=O)O)C(=O)OCC)OC1CCCCO1 (stereo not drawn) [Example 8, (5RS,3"SR)-1-(6'-Carboxy-4'-methylhexyl)-2-hydroxy-5-[3"-(2'"-tetrahydropyranyloxy)-trans-1"-octenyl]-cyclopentane-carboxylic acid ethyl ester] |  | < 10 | 80 | 
10 | CCCCCC(O)/C=C/C1CCC(O)C1(Cc1ccccc1CCCC(=O)O)C(=O)OCC (stereo not drawn) [Example 46, (5RS,3'"SR)-1-[2'-(3"-Carboxypropyl)-benzyl]-2-hydroxy-5-[3'"-hydroxy-trans-1'"-octenyl]-cyclopentane-carboxylic acid ethyl ester] |  | < 10 | 80 | 
11 | CCCCCC(O)/C=C/C1CCC(O)C1(C/C=C/COCC(=O)O)C(=O)OCC (stereo not drawn) [Example 37, (5RS,3"SR)-1-(6'-Carboxy-5'-oxa-trans-2'-hexenyl)-2-hydroxy-5-(3"-hydroxy-trans-1"-octenyl)-cyclopentanecarboxylic acid ethyl ester] |  | < 10 | 65 | 
12 | CCCCCC(/C=C/C1CCC(O)C1(CCC(C)CCCC(=O)O)C(=O)OCC)OC1CCCCO1 (stereo not drawn) [Example 5, (5 RS, 3" SR)-1-(6'-Carboxy-3'-methylhexyl)-2-hydroxy-5-[3"-(2"'-tetrahydropyranyloxy)-trans-1"-octenyl]-cyclopentane-carboxylic acid ethyl ester] | 10 (≈ 19.6 µM) |  |  | 
13 | CCCCCC(/C=C/C1CCC(O)C1(C/C=C/COCC(=O)O)C(=O)OCC)OC1CCCCO1 (stereo not drawn) [Example 35, (5RS,3"SR)-1-(6'-Carboxy-5'-oxa-trans-2'-hexenyl)-2-hydroxy-5-[3"-(2'"-tetrahydropyranyloxy)-trans-1"-octenyl]cyclopntane-carboxylic acid ethyl ester] |  | 2.3 (≈ 4.63 µM) |  | 
14 | CCCCCC(/C=C/C1CCC(=O)C1(CCCCC(C)CC(=O)OCC)C(=O)OCC)OC1CCCCO1 (stereo not drawn) [Example 10, (5RS,3"SR)-1-(6'-Ethoxycarbonyl-5'-methylhexyl)-2-oxo-5-[3"-(2'"-tetrahydropyranyloxy)-trans-1"-octenyl]-cyclopentane-carboxylic acid ethyl ester] |  | > 10 | 10 | 
15 | CCCCCC(/C=C/C1CCC(O)C1(CCCCC(C)CC(=O)O)C(=O)OCC)OC1CCCCO1 (stereo not drawn) [Example 11, (5RS,3"SR)-1-(6'-Carboxy-5'-methylhexyl)-2-hydroxy-5-[3"-(2'"-tetrahydropyranyloxy)-trans-1"-octenyl]-cyclopentane-carboxylic acid ethyl ester] |  | < 10 | 80 | 
